Test results as given in patent US20180318383A1, “PEPTIDE HAVING NEURONAL LOSS PREVENTION AND REGENERATION EFFECTS, AND COMPOSITION CONTAINING SAME” (GEMVAX & KAEL CO., LTD., priority 2015, published 2018).

Experiments:
β-amyloid = experiment: Expression levels of all types of Aβs in 3XTg-AD mice (western blotting); assay type: in vivo; conditions: hippocampus and whole brain; vs control and Donepezil
Experimental: (§1) To test the efficacy of PEP1 on AD, AD transgenic mice (3XTg-AD) were purchased from Jackson Laboratory. Genetic characteristics of the transgenic mice are as follows: B6; 129-Psen1tm1Mpm Tg(APPSwe, tauP301L)1Lfa/Mmjax. […] One week after mice were confirmed as pregnant, new mice were delivered and weaned for 3 weeks. Two weeks later, mature mice were obtained.
(§2) During the preliminary breeding and the entire period of the experiment, a temperature was maintained at 23±2° C. and a relative humidity was maintained at 60±10%, and then the mice were raised under a 12-hour dark/light cycle. Experimental animals were divided into five groups, and each group included 10 animals. The divided experimental groups are as follows. […]
(§3) The PEP1, physiological saline, donepezil and scramble peptide were subcutaneously injected at each concentration three times a week for two months from the age of 12 months, and then two months after the injection, cognitive/memory behavior tests (passive avoidance test and Y maze test) were performed to examine a degree of improvement in cognitive function and memory function. After the brain was extracted to separate the hippocampus, the amounts of amyloid beta in the hippocampus and the whole brain, and the amounts of an amyloid beta oligomer and NFT generated by tau hyperphosphorylation were determined by western blotting and immunostaining. […]

oligomer Aβ = experiment: Expression level of oligomer Aβ in 3XTg-AD mice (western blotting); assay type: in vivo; conditions: hippocampus and whole brain; vs control and Donepezil
Experimental: as §1, §2, §3

NSCs = experiment: ROS production in NSCs (DCFH-DA staining); assay type: cell-based, rat; conditions: 20 μM Aβ25-35 + PEP1, 48 hours, DCF fluorescence
Experimental: NSCs were treated with 20 μM Aβ25-30 for 48 hours and stained with DCFH-DA for 15 minutes to measure ROS. NSCs were treated with a varying concentration of PEP1 and 20 μM Aβ25-30 for 48 hours. After culturing, the cells were stained with 10 μM DCFH-DA at 37° C. for 15 minutes and washed with PBS three times. DCFH-DA freely passed through the cell membrane, and then was degraded into DCF by an esterase present in the cells. Therefore, a DCF fluorescent intensity refers to an intracellular hydrogen peroxide (ROS) level. DCF accumulation was evaluated using a reader according to an absorbance at 490 nm and a reference absorbance at 690 nm. Flow cytometry was observed and analyzed using an Accuri C6 flow cytometer.

NeuN = NeuN expression in 3XTg-AD mice (western blotting); assay type: in vivo; conditions: hippocampus and whole brain; s.c. three times a week for two months from age 12 months; vs control and Donepezil, same amount
Experimental: as §1, §2, §3

EARPALLTSRLRFIPK (homo sapiens) [PEP1, hTERT-derived peptide consisting of 16 amino acids, telomerase location [611-626]]
expression levels of all types of Aβs (β-amyloid): decreased
expression level of oligomer Aβ (oligomer Aβ): decreased
amount of ROS induced by Aβ25-35 (NSCs): significantly reduces
NeuN (NeuN): increased
